Measured values as given in PubChem BioAssay AID270 (DTP/NCI, 2004).
Values joined by “and” are separate entries in the source; they are usually repeats but may differ in a detail not shown here. Equal values may be shown once. Records with an inconclusive call do not appear.

Tested on: BDF1 mice, s.c. Lewis lung carcinoma, T/C %
Assay: NCI In Vivo Anticancer Drug Screen. Data for tumor model Lewis Lung Carcinoma (subcutaneous) in B6D2F1 (BDF1) mice
How it was run: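 First, mice carry a transplantable tumor. Next, groups receive either compound or vehicle. Finally, survival or tumor dimensions in the dosed animals are divided by the corresponding control figure.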

[1] = endpoint: median survival time, dose: 2.5 mg/kg/injection, schedule: Q01DX009 (ip), vehicle: saline, higher = longer survival
[2] = endpoint: median survival time, dose: 5.0 mg/kg/injection, schedule: Q01DX009 (ip), vehicle: saline, higher = longer survival
[3] = endpoint: median survival time, dose: 10.0 mg/kg/injection, schedule: Q01DX009 (ip), vehicle: saline, higher = longer survival
[4] = endpoint: mean tumor weight, dose: 25.0 mg/kg/injection, schedule: Q01DX011 (ip), vehicle: saline, higher = larger tumour
[5] = endpoint: mean tumor weight, dose: 50.0 mg/kg/injection, schedule: Q01DX011 (ip), vehicle: saline, higher = larger tumour

O=NN(CCF)C(=O)NC1CCSCC1
T/C (endpoint: median survival time, dose: 2.5 mg/kg/injection, schedule: Q01DX009 (ip), vehicle: saline with Tween-80, higher = longer survival): 114 % of control | T/C [1]: 103 % of control | T/C (endpoint: median survival time, dose: 5.0 mg/kg/injection, schedule: Q01DX009 (ip), vehicle: saline with Tween-80, higher = longer survival): 191 % of control | T/C [2]: 113 % of control | T/C [3]: 204 % of control | T/C (endpoint: median survival time, dose: 13.0 mg/kg/injection, schedule: Q04DX004 (ip), vehicle: saline with Tween-80, higher = longer survival): 279 % of control | T/C (endpoint: median survival time, dose: 18.0 mg/kg/injection, schedule: Q04DX004 (ip), vehicle: saline with Tween-80, higher = longer survival): 194 % of control and 345 % of control | T/C (endpoint: median survival time, dose: 20.0 mg/kg/injection, schedule: Q01DX009 (ip), vehicle: saline, higher = longer survival): 108 % of control | T/C (endpoint: median survival time, dose: 23.0 mg/kg/injection, schedule: Q04DX004 (ip), vehicle: saline with Tween-80, higher = longer survival): 122 % of control | T/C (endpoint: median survival time, dose: 25.0 mg/kg/injection, schedule: Q07DX002 (ip), vehicle: saline with Tween-80, higher = longer survival): 190 % of control and 381 % of control | T/C (endpoint: median survival time, dose: 39.0 mg/kg/injection, schedule: Q07DX002 (ip), vehicle: saline with Tween-80, higher = longer survival): 198 % of control | T/C (endpoint: median tumor weight (est.), dose: 14.0 mg/kg/injection, schedule: Q01DX001 (ip), vehicle: saline with Tween-80, higher = larger tumour): 53 % of control | T/C (endpoint: median tumor weight (est.), dose: 27.0 mg/kg/injection, schedule: Q01DX001 (ip), vehicle: saline with Tween-80, higher = larger tumour): 8 % of control

Clc1ccc(C(c2ccccc2Cl)C(Cl)Cl)cc1 (configuration not stated)
T/C (endpoint: mean tumor weight, dose: 62.5 mg/kg/injection, schedule: Q01DX011 (sc), vehicle: steriod suspending solution, higher = larger tumour): 98 % of control | T/C (endpoint: mean tumor weight, dose: 125.0 mg/kg/injection, schedule: Q01DX011 (sc), vehicle: steriod suspending solution, higher = larger tumour): 113 % of control | T/C (endpoint: mean tumor weight, dose: 250.0 mg/kg/injection, schedule: Q01DX011 (sc), vehicle: steriod suspending solution, higher = larger tumour): 84 % of control | T/C (endpoint: mean tumor weight, dose: 500.0 mg/kg/injection, schedule: Q01DX011 (sc), vehicle: steriod suspending solution, higher = larger tumour): 99 % of control

NC(Cc1cc(Cl)c(O)c(Cl)c1)C(=O)O (configuration not stated)
T/C (endpoint: median survival time, dose: 18.75 mg/kg/injection, schedule: Q01DX009 (ip), vehicle: saline, higher = longer survival): 115 % of control | T/C (endpoint: median survival time, dose: 37.5 mg/kg/injection, schedule: Q01DX009 (ip), vehicle: saline, higher = longer survival): 117 % of control | T/C (endpoint: median survival time, dose: 75.0 mg/kg/injection, schedule: Q01DX009 (ip), vehicle: saline, higher = longer survival): 115 % of control

CN(N=O)C(=O)N[C@@H](C=O)[C@@H](O)[C@H](O)[C@H](O)CO
T/C (endpoint: mean tumor weight (est.), dose: 20.0 mg/kg/injection, schedule: Q01DX009 (ip), vehicle: water, higher = larger tumour): 93 % of control | T/C (endpoint: mean tumor weight (est.), dose: 40.0 mg/kg/injection, schedule: Q01DX009 (ip), vehicle: water, higher = larger tumour): 65 % of control | T/C (endpoint: mean tumor weight (est.), dose: 80.0 mg/kg/injection, schedule: Q01DX009 (ip), vehicle: water, higher = larger tumour): 42 % of control | T/C (endpoint: median survival time, dose: 20.0 mg/kg/injection, schedule: Q01DX009 (ip), vehicle: water, higher = longer survival): 115 % of control | T/C (endpoint: median survival time, dose: 40.0 mg/kg/injection, schedule: Q01DX001 (ip), vehicle: other, higher = longer survival): 99 % of control and 105 % of control | T/C (endpoint: median survival time, dose: 40.0 mg/kg/injection, schedule: Q01DX001 (ip), vehicle: saline, higher = longer survival): 86 % of control | T/C (endpoint: median survival time, dose: 40.0 mg/kg/injection, schedule: Q01DX009 (ip), vehicle: water, higher = longer survival): 94 % of control | T/C (endpoint: median survival time, dose: 80.0 mg/kg/injection, schedule: Q01DX001 (ip), vehicle: other, higher = longer survival): 90 % of control and 108 % of control | T/C (endpoint: median survival time, dose: 80.0 mg/kg/injection, schedule: Q01DX001 (ip), vehicle: saline, higher = longer survival): 94 % of control | T/C (endpoint: median survival time, dose: 160.0 mg/kg/injection, schedule: Q01DX001 (ip), vehicle: other, higher = longer survival): 98 % of control and 111 % of control | T/C (endpoint: median survival time, dose: 160.0 mg/kg/injection, schedule: Q01DX001 (ip), vehicle: saline, higher = longer survival): 108 % of control | T/C (endpoint: median survival time, dose: 320.0 mg/kg/injection, schedule: Q01DX001 (ip), vehicle: other, higher = longer survival): 99 % of control | T/C (endpoint: median survival time, dose: 320.0 mg/kg/injection, schedule: Q01DX001 (ip), vehicle: saline, higher = longer survival): 91 % of control

CC(=O)Nc1ccc2nc3ccc(NC(C)=O)cc3[n+](-c3ccccc3)c2c1
T/C (endpoint: mean tumor weight, dose: 12.5 mg/kg/injection, schedule: Q01DX011 (ip), vehicle: saline, higher = larger tumour): 61 % of control | T/C [4]: 79 % of control | T/C [5]: 59 % of control

N=C(N)c1ccc(OCCCOc2ccc(C(=N)N)cc2Br)c(Br)c1
T/C (endpoint: median survival time, dose: 6.25 mg/kg/injection, schedule: Q01DX009 (ip), vehicle: saline, higher = longer survival): 122 % of control

CCCNC1=C(N2CC2)C(=O)C(NCCC)=C(N2CC2)C1=O
T/C [1]: 102 % of control | T/C [2]: 112 % of control | T/C [3]: 114 % of control

CC(=O)NC(Cc1ccc(N(CCCl)CCCl)cc1)C(=O)O (configuration not stated)
T/C (endpoint: median survival time, dose: 3.13 mg/kg/injection, schedule: Q01DX009 (ip), vehicle: other, higher = longer survival): 104 % of control | T/C (endpoint: median survival time, dose: 6.25 mg/kg/injection, schedule: Q01DX009 (ip), vehicle: other, higher = longer survival): 120 % of control | T/C (endpoint: median survival time, dose: 25.0 mg/kg/injection, schedule: Q01DX009 (ip), vehicle: other, higher = longer survival): 114 % of control

O=CNCCO
T/C (endpoint: mean tumor weight, dose: 133.0 mg/kg/injection, schedule: Q01DX011 (ip), vehicle: saline, higher = larger tumour): 69 % of control | T/C (endpoint: mean tumor weight, dose: 200.0 mg/kg/injection, schedule: Q01DX011 (ip), vehicle: saline, higher = larger tumour): 79 % of control | T/C (endpoint: mean tumor weight, dose: 300.0 mg/kg/injection, schedule: Q01DX011 (ip), vehicle: saline, higher = larger tumour): 48 % of control | T/C (endpoint: mean tumor weight, dose: 450.0 mg/kg/injection, schedule: Q01DX011 (ip), vehicle: saline, higher = larger tumour): 54 % of control | T/C (endpoint: mean tumor weight, dose: 750.0 mg/kg/injection, schedule: Q01DX011 (ip), vehicle: saline, higher = larger tumour): 81 % of control

OC(CBr)C(O)C(O)C(O)CBr (configuration not stated)
T/C (endpoint: mean tumor weight (est.), dose: 75.0 mg/kg/injection, schedule: Q01DX009 (ip), vehicle: Klucel (hydroxypropylcellulose) (HPC), higher = larger tumour): 107 % of control | T/C (endpoint: mean tumor weight (est.), dose: 150.0 mg/kg/injection, schedule: Q01DX009 (ip), vehicle: Klucel (hydroxypropylcellulose) (HPC), higher = larger tumour): 92 % of control | T/C (endpoint: mean tumor weight (est.), dose: 300.0 mg/kg/injection, schedule: Q01DX009 (ip), vehicle: Klucel (hydroxypropylcellulose) (HPC), higher = larger tumour): 63 % of control | T/C [4]: 103 % of control | T/C [5]: 82 % of control | T/C (endpoint: mean tumor weight, dose: 100.0 mg/kg/injection, schedule: Q01DX011 (ip), vehicle: saline, higher = larger tumour): 46 % of control and 51 % of control | T/C (endpoint: mean tumor weight, dose: 400.0 mg/kg/injection, schedule: Q01DX011 (ip), vehicle: saline, higher = larger tumour): 118 % of control | T/C (endpoint: median survival time, dose: 100.0 mg/kg/injection, schedule: Q01DX009 (ip), vehicle: saline, higher = longer survival): 107 % of control | T/C (endpoint: median survival time, dose: 150.0 mg/kg/injection, schedule: Q01DX009 (ip), vehicle: Klucel (hydroxypropylcellulose) (HPC), higher = longer survival): 113 % of control | T/C (endpoint: median survival time, dose: 200.0 mg/kg/injection, schedule: Q01DX009 (ip), vehicle: saline, higher = longer survival): 102 % of control | T/C (endpoint: median survival time, dose: 400.0 mg/kg/injection, schedule: Q01DX009 (ip), vehicle: saline, higher = longer survival): 107 % of control

Cc1cc(O)c(C(C)C)cc1S(=O)(=O)O (tested in a mixture with another compound)
T/C (endpoint: mean tumor weight, dose: 25.0 mg/kg/injection, schedule: Q01DX011 (ip), vehicle: other, higher = larger tumour): 95 % of control | T/C (endpoint: mean tumor weight, dose: 50.0 mg/kg/injection, schedule: Q01DX011 (ip), vehicle: other, higher = larger tumour): 105 % of control | T/C (endpoint: mean tumor weight, dose: 100.0 mg/kg/injection, schedule: Q01DX011 (ip), vehicle: other, higher = larger tumour): 114 % of control | T/C (endpoint: mean tumor weight, dose: 200.0 mg/kg/injection, schedule: Q01DX011 (ip), vehicle: other, higher = larger tumour): 98 % of control

Cc1nc(N)nc(N)c1-c1ccc(Cl)c(Cl)c1
T/C (endpoint: mean tumor weight, dose: 0.9 mg/kg/injection, schedule: Q01DX011 (ip), vehicle: carboxymethylcellulose (CMC), higher = larger tumour): 80 % of control | T/C (endpoint: mean tumor weight, dose: 1.3 mg/kg/injection, schedule: Q01DX011 (ip), vehicle: carboxymethylcellulose (CMC), higher = larger tumour): 89 % of control | T/C (endpoint: mean tumor weight, dose: 2.0 mg/kg/injection, schedule: Q01DX011 (ip), vehicle: carboxymethylcellulose (CMC), higher = larger tumour): 92 % of control | T/C (endpoint: mean tumor weight, dose: 2.0 mg/kg/injection, schedule: Q01DX011 (ip), vehicle: other, higher = larger tumour): 22 % of control | T/C (endpoint: mean tumor weight, dose: 3.0 mg/kg/injection, schedule: Q01DX011 (ip), vehicle: carboxymethylcellulose (CMC), higher = larger tumour): 45 % of control | T/C (endpoint: mean tumor weight, dose: 6.0 mg/kg/injection, schedule: Q01DX011 (ip), vehicle: other, higher = larger tumour): 4 % of control | T/C (endpoint: median survival time, dose: 0.39 mg/kg/injection, schedule: Q01DX009 (ip), vehicle: saline, higher = longer survival): 96 % of control | T/C (endpoint: median survival time, dose: 0.78 mg/kg/injection, schedule: Q01DX009 (ip), vehicle: saline, higher = longer survival): 108 % of control | T/C (endpoint: median survival time, dose: 1.0 mg/kg/injection, schedule: Q02DX009 (ip), vehicle: Klucel (hydroxypropylcellulose) (HPC), higher = longer survival): 105 % of control | T/C (endpoint: median survival time, dose: 1.56 mg/kg/injection, schedule: Q01DX009 (ip), vehicle: saline, higher = longer survival): 123 % of control | T/C (endpoint: median survival time, dose: 2.0 mg/kg/injection, schedule: Q02DX009 (ip), vehicle: Klucel (hydroxypropylcellulose) (HPC), higher = longer survival): 108 % of control | T/C (endpoint: median survival time, dose: 3.13 mg/kg/injection, schedule: Q01DX009 (ip), vehicle: saline, higher = longer survival): 112 % of control

O=C(CCCN1CCC(O)(c2cccc(C(F)(F)F)c2)CC1)c1ccc(F)cc1
T/C (endpoint: median survival time, dose: 25.0 mg/kg/injection, schedule: Q04DX003 (ip), vehicle: saline with Tween-80, higher = longer survival): 92 % of control | T/C (endpoint: median survival time, dose: 50.0 mg/kg/injection, schedule: Q04DX003 (ip), vehicle: saline with Tween-80, higher = longer survival): 121 % of control
